Calls of active or inactive are those of the source. No cut-off for these calls is given here.
Assays:
[1] = test system: Calf thymus DNA; test: Binding affinity to calf thymus DNA by UV-visible absorption spectroscopy; format: nucleic-acid assay, Bos taurus; settings: for Kb: Bos taurus
[2] = test system: Calf thymus DNA; test: Binding affinity to calf thymus DNA assessed as fluorescence quenching at DNA/compound ratio 4 by fluorescence spectrophotometer analysis; format: nucleic-acid assay; settings: Bos taurus
[3] = test system: Calf thymus DNA; test: Binding affinity to calf thymus DNA assessed as relative viscosity after 5 mins by semimicrodilution capillary viscometer analysis; format: nucleic-acid assay; settings: Bos taurus
[4] = test system: Escherichia coli; test: Photo-cleavage activity in Escherichia coli supercoiled pUC19 DNA assessed as formation of open circular form of DNA at 60 uM measured 2 hrs after UV-light irradiation by gel electrophoresis analysis
[5] = test system: Escherichia coli; test: Photo-cleavage activity in Escherichia coli supercoiled pUC19 DNA assessed as formation of nicked form of DNA at 20 to 40 uM measured 2 hrs after UV-light irradiation by gel electrophoresis analysis
[6] = test system: Escherichia coli; test: Photo-cleavage activity in Escherichia coli supercoiled pUC19 DNA assessed as formation of nicked form of DNA at 80 uM measured 2 hrs after UV-light irradiation by gel electrophoresis analysis
[7] = test system: Escherichia coli; test: Photo-cleavage activity in Escherichia coli supercoiled pUC19 DNA assessed as formation of linear form of DNA at 80 uM measured 2 hrs after UV-light irradiation by gel electrophoresis analysis
[8] = test system: Escherichia coli; test: Photo-cleavage activity in Escherichia coli supercoiled pUC19 DNA assessed as formation of open circular form of DNA at 80 uM measured 2 hrs after UV-light irradiation by gel electrophoresis analysis
[9] = test system: Escherichia coli; test: Photo-cleavage activity in Escherichia coli supercoiled pUC19 DNA assessed as formation of open circular form of DNA at 40 uM measured 2 hrs after UV-light irradiation by gel electrophoresis analysis
[10] = test system: Escherichia coli; test: Photo-cleavage activity in Escherichia coli supercoiled pUC19 DNA assessed as formation of open circular form of DNA at 140 uM measured 2 hrs after UV-light irradiation by gel electrophoresis analysis

Row | Kb [1] | Activity [2] | Activity [3] | Activity [4] | Activity [5] | Activity [6] | Activity [7] | Activity [8] | Activity [9] | Activity [10] | SMILES | Ki [1]
1 | 5.2 ×10⁴ /M | Active | Active | 50% | 8% | 70% | 24% | – | – | – | O=C(/C=C/c1cc2ccccc2nc1Cl)c1ccccc1 | 572 nM
2 | 5.13 ×10⁴ /M | Active | Active | 54% | 8% | 70% | 24% | – | – | – | O=C(/C=C/c1cc2ccccc2nc1Cl)c1ccc(Cl)cc1 | 562 nM
3 | 4.9 ×10⁴ /M | Active | Active | 51% | 8% | 70% | 24% | – | – | – | Cc1ccc(C(=O)/C=C/c2cc3ccccc3nc2Cl)cc1 | 540 nM
4 | 2.8 ×10⁴ /M | Active | Active | 52% | 8% | 70% | 24% | – | – | 58% | COc1ccc(C(=O)/C=C/c2cc3ccccc3nc2Cl)cc1 | –

Continued, molecule first:

Row | SMILES | Kb [1] | Activity [2] | Activity [3] | Activity [4] | Activity [5] | Activity [6] | Activity [7] | Activity [8] | Activity [9] | Activity [10] | Ki [1]
5 | O=C(/C=C/c1cc2ccccc2nc1Cl)c1ccc(Br)cc1 | 4.2 ×10⁴ /M | Active | Active | 55% | 8% | 70% | 24% | – | – | – | 468 nM
6 | CNc1ccc(C(=O)/C=C/c2cc3ccccc3nc2Cl)cc1 | 3.5 ×10⁴ /M | – | – | 57% | 8% | 40% | 24% | 40% | – | – | –
7 | O=C(/C=C/c1cc2ccccc2nc1Cl)c1ccc([N+](=O)[O-])cc1 | 4.91 ×10⁴ /M | Active | Active | 56% | 8% | 70% | 24% | – | – | – | 531 nM
8 | O=C(/C=C/c1cc2ccccc2nc1Cl)c1ccc(O)cc1 | 1.9 ×10⁴ /M | Active | Active | 53% | 8% | 70% | 24% | 70% | 24% | – | –

From ChEMBL document CHEMBL3621078, “Synthesis, DNA binding, docking and photocleavage studies of quinolinyl chalcones” (Medchemcomm, 2014)
